From patent US11518758B2, “Heteroarylaminopyrimidine amide autophagy inhibitors and methods of use thereof” (Deciphera Pharmaceuticals, LLC, priority 2019, dated 2022)

Tests used:
[1] = tested on: phospho-Serine 318 ATG13 (pATG13) in MiaPaCa-2 cells; assay: pATG13 levels of mutant KRas MiaPaCa-2 cells after treatment with ULK inhibitors in combination with trametinib (ELISA); type: cell-based, human
Procedure: Example 178. pATG13 Levels of Mutant KRas MiaPaCa-2 Cells after Treatment with ULK Inhibitors in Combination with Trametinib
MiaPaCa-2 human pancreatic cancer cells (10000 cells/well) were added to a 384-well tissue-culture treated plate in 50 μL of pre-warmed DMEM medium supplemented with 10% characterized fetal bovine serum (Invitrogen, Carlsbad, Calif.), 100 units/mL penicillin G, 100 μg/mL streptomycin, and 2.5% Horse Serum and allowed to grow overnight at 37° C., 5% CO2, and 95% humidity. The following day, 10 μL of media containing trametinib or DMSO as a control was added to wells. The final concentration of trametinib in wells was 250 nM. A dose response of a test compound (0.6 μL per well) was added. DMSO (0.6 μL) was added to control wells. The plate was briefly shaken to mix wells and then incubated at 37° C. overnight. The next day, the media was aspirated and cells were washed with Dulbecco's Phosphate Buffered Saline (Gibco). Cells were lysed using MPER lysis buffer (Pierce, Rockford, Ill.) containing Halt Phosphatase and Protease Inhibitors (Pierce, Rockford, Ill.) and Phosphatase inhibitor cocktail 2 (Sigma, St. Louis, Mo.) at 4° C. for 10 minutes with shaking.
(§1) Cellular levels of phospho-Serine 318 ATG13 (pATG13) were measured via an ELISA method. Total ATG13 Antibody (Cell Signaling Cat #13273) was used to coat the wells. The plate was incubated at 4° C. overnight and washed with ELISA wash buffer (Biolegend Cat #421601). The wells were then blocked with assay diluent (Biolegend Cat #421203) for 1 hour at room temperature. Plate wells were washed with ELISA wash buffer. Cell lysate was added to wells and incubated at room temperature for 2 hours. Plate wells were washed with ELISA wash buffer. Biotinylated pS318-ATG13 antibody (Rockland Immunochemicals Cat #600-401-C49) was diluted in assay diluent and added to each well and incubated at room temperature for 1 hour. Plate wells were washed with ELISA wash buffer. Streptavidin linked to horseradish peroxidase (Thermo Fisher Cat #21140) was diluted in assay diluent and added to each well and incubated at room temperature for 1 hour. Plate wells were washed with ELISA wash buffer. High sensitivity TMB substrate (Biolegend Cat #421101) was added to each well and incubated at room temperature for 20 minutes. The reaction was stopped with 2N Sulfuric Acid. The plate was analyzed at on a plate reader measuring absorbance at 450 nm and 540 nm (background). Signal was calculated by first subtracting the background absorbance at 540 nm from the absorbance at 450 nm for each well. Next, the background corrected absorbance at 450 nm from blank wells was subtracted from test wells. Data was compared to control wells to determine % ATG13 phosphorylation. GraphPad Prism was used to calculate IC50 values.

ULK1 kinase = target: T1, ULK1 kinase (Homo sapiens, UniProt O75385); assay: Biochemical assay for ULK1.2 (coupled pyruvate kinase/lactate dehydrogenase assay); details: 19 nM ULK1 (Eurofins), myelin basic protein, 1 mM ATP
T1 construct: purchased Eurofins 14-959
T1 sequence (O75385 with tags, fused parts or gaps): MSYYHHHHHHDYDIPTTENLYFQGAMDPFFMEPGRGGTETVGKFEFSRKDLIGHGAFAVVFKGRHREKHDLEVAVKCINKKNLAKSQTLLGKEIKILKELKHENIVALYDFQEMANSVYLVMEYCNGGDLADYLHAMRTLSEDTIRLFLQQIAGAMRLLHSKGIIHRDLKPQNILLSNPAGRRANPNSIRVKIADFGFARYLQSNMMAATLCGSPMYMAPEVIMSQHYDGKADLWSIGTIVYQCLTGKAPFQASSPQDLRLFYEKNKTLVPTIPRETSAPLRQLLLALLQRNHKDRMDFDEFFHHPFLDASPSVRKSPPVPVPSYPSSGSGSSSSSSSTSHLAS
In short: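 NADH-coupled PK/LDH read-out at 340 nm, run with 19 nM ULK1, 0.25 mg/mL myelin basic protein and 1 mM ATP. Buffer was 100 mM Tris pH 7.5 with 15 mM MgCl2 and 1% DMSO final. Monitoring was continuous for 6 hours at 30° C; rates from the 2-3 h window were converted to percent inhibition and fitted to a four-parameter curve for IC50.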

[2] = tested on: phospho-Serine 318 ATG13 (pATG13) in A375 cells; assay: pATG13 levels of mutant BRAF A375 cells after treatment with ULK inhibitors in combination with trametinib (ELISA); type: cell-based, human
Procedure: Example 180. pATG13 Levels of Mutant BRAF A375 Cells after Treatment with ULK Inhibitors in Combination with Trametinib
A375 human malignant melanoma cancer cells (20000 cells/well) were added to a 96-well tissue-culture treated plate in 100 μL of pre-warmed DMEM medium supplemented with 10% characterized fetal bovine serum (Invitrogen, Carlsbad, Calif.), 100 units/mL penicillin G, and 100 μg/mL streptomycin and allowed to grow overnight at 37° C., 5% CO2, and 95% humidity. The following day, 100 μL of media containing trametinib or DMSO as a control was added to wells. The final concentration of trametinib in wells was 250 nM. A dose response of a test compound (0.5 μL per well) was added. DMSO (0.5 μL) was added to control wells. The plate was briefly shaken to mix wells and then incubated at 37° C. overnight. The next day, the media was aspirated and cells were washed with Dulbecco's Phosphate Buffered Saline (Gibco). Cells were lysed using MPER lysis buffer (Pierce, Rockford, Ill.) containing Halt Phosphatase and Protease Inhibitors (Pierce, Rockford, Ill.) and Phosphatase inhibitor cocktail 2 (Sigma, St. Louis, Mo.) at 4° C. for 10 minutes with shaking.
as §1

Structure (SMILES) | IC50 [1] [nM] | IC50 (ULK1 kinase) [nM] | IC50 [2] [nM]
CN(C)CCn1cc(Nc2ncc(C(F)(F)F)c(NCCCN3CCCCC3=O)n2)cn1 [Example 32] | 10 to 100 | 25 to 100 | –
Cc1nn(CCCN2CCOCC2)cc1Nc1ncc(C(F)(F)F)c(NCCCN2CCCCCC2=O)n1 [Example 100] | 100 to 300 | 25 to 100 | –
CC(C)N1CCC(n2cc(Nc3ncc(C(F)(F)F)c(NCCCN4CCCCC4=O)n3)cn2)CC1 [Example 6] | 10 to 100 | 1 to 25 | –
Cc1nn(C2CCN(C(C)C)CC2)cc1Nc1ncc(C(F)(F)F)c(NCCCN2CCCOCC2=O)n1 [Example 108] | 100 to 300 | 25 to 100 | –
Cc1nn(C2CCN(C)CC2)cc1Nc1ncc(C(F)(F)F)c(NCCCN2CCCOCC2=O)n1 [Example 102] | 10 to 100 | 1 to 25 | –
Cc1nn(C2CCN(C)CC2)cc1Nc1ncc(Cl)c(NCCCN2CCCOCC2=O)n1 [Example 105] | 100 to 300 | 25 to 100 | –
Cc1nn(C2CCN(C)CC2)cc1Nc1ncc(C(F)(F)F)c(NCCCN2CCCCCC2=O)n1 [Example 79] | 10 to 100 | 1 to 25 | –
Cc1nn(C2CCN(C)CC2)cc1Nc1ncc(C(F)(F)F)c(NCCCN2CCOCCC2=O)n1 [Example 127] | 10 to 100 | 1 to 25 | 10 to 100
Cc1nn([C@@H]2CCN(C)C2)cc1Nc1ncc(C(F)(F)F)c(NCCCN2CCCCC2=O)n1 [Example 18] | – | 1 to 25 | 10 to 100
Cc1nn([C@H]2CCN(C)C2)cc1Nc1ncc(Br)c(NCCCN2CCCCC2=O)n1 [Example 61] | 10 to 100 | 25 to 100 | 10 to 100
Cc1nn([C@@H]2CCN(C)C2)cc1Nc1ncc(C(F)(F)F)c(NCCCN2CCCOCC2=O)n1 [Example 106] | 10 to 100 | 25 to 100 | –
Cc1nn(C2CCN(C)CC2)cc1Nc1ncc(C(F)(F)F)c(NCCCN2CCCCC2=O)n1 [Example 8] | – | 1 to 25 | 10 to 100
Cc1nn(C2CCN(C(C)C)CC2)cc1Nc1ncc(C(F)(F)F)c(NCCCN2CCOCCC2=O)n1 [Example 131] | 100 to 300 | 25 to 100 | –
Cc1nn(C2CCN(C(C)C)CC2)cc1Nc1ncc(C(F)(F)F)c(NCCCN2CCCOC2=O)n1 [Example 68] | 10 to 100 | 25 to 100 | 100 to 300
CCc1nn(C2CCN(C)CC2)cc1Nc1ncc(Br)c(NCCCN2CCCCC2=O)n1 [Example 53] | 100 to 300 | 25 to 100 | 100 to 300
CCN1CCC(n2cc(Nc3ncc(C(F)(F)F)c(NCCCN4CCCOCC4=O)n3)c(C)n2)CC1 [Example 107] | 100 to 300 | 25 to 100 | –
Cc1nn(C2CCN(C(C)C)CC2)cc1Nc1ncc(C(F)(F)F)c(NCCCN2CCCCC2=O)n1 [Example 15] | 10 to 100 | 25 to 100 | 10 to 100
Cc1nn(CCN(C)C)cc1Nc1ncc(C(F)(F)F)c(NCCCN2CCCCC2=O)n1 [Example 21] | 100 to 300 | 25 to 100 | –
CCN1CCC(n2cc(Nc3ncc(C(F)(F)F)c(NCCCN4CCOCCC4=O)n3)c(C)n2)CC1 [Example 130] | 10 to 100 | 25 to 100 | –
CCN1CC[C@H](n2cc(Nc3ncc(Br)c(NCCCN4CCCCC4=O)n3)c(C)n2)C1 [Example 64] | 10 to 100 | 25 to 100 | –
